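Five concentrations, 48 hours, 96-well plates. GI50 marks 50% less growth. The concentration for full growth arrest is given as TGI.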
Assays:
Assay in all cases: NCI-60 cell line screen, 48 h
NCI-H522 lung = system: NCI-H522 lung
SR leukemia = system: SR leukemia
BT-549 breast = system: BT-549 breast
HS 578T breast = system: HS 578T breast
MDA-MB-435 = system: MDA-MB-435
ACHN renal = system: ACHN renal
HOP-62 NSCLC = system: HOP-62 NSCLC
DMS 114 small cell lung = system: DMS 114 small cell lung
KM20L2 colon = system: KM20L2 colon
DLD-1 colon = system: DLD-1 colon

Row | Compound | GI50 (NCI-H522 lung) [µM] | TGI (NCI-H522 lung) [µM] | GI50 (SR leukemia) [µM] | TGI (SR leukemia) [µM] | GI50 (BT-549 breast) [µM] | TGI (BT-549 breast) [µM] | GI50 (HS 578T breast) [µM] | TGI (HS 578T breast) [µM] | GI50 (MDA-MB-435) [µM] | TGI (MDA-MB-435) [µM] | GI50 (ACHN renal) [µM] | TGI (ACHN renal) [µM] | GI50 (HOP-62 NSCLC) [µM] | TGI (HOP-62 NSCLC) [µM] | TGI (DMS 114 small cell lung) [µM] | TGI (KM20L2 colon) [µM] | TGI (DLD-1 colon) [µM]
1 | COc1cc(/C=C2\C(=O)Nc3ccc(Cl)cc32)cc(OC)c1OC | 13.7 | > 100 | 3.29 | > 100 | 22.3 | 92.3 | 16.5 | > 100 | 3.26 | 9.37 | 23.5 | > 100 | – | – | – | – | –
2 | COc1cc(-c2n/c(=C\c3c(O)[nH]c4ccccc34)cc3c2=Nc2ccccc2-3)ccc1F | 8.79 | 51.6 | 2.05 | 20.2 | 4.07 | 18.1 | 19.7 | > 100 | 5.8 | 64.4 | 8.09 | 35.2 | 4.68 | 17.3 | – | – | –
3 | CCOC(=O)NC(=O)c1cn(CCN(CCO)C(=O)NCCCCCCNC(=O)N(CCO)CCn2cc(C(=O)NC(=O)OCC)c(=O)[nH]c2=O)c(=O)[nH]c1=O | – | > 100 | – | – | – | – | – | – | – | – | – | – | – | > 100 | > 100 | > 100 | > 100
4 | N#CC1(C#N)C(=O)c2ccncc2C1=O | – | > 100 | – | > 100 | – | > 100 | – | > 100 | – | > 100 | – | > 100 | – | – | – | – | –
5 | CCCC[n+]1ccn(-c2nc3ccccc3n2C)c1 | – | > 100 | – | > 100 | – | – | – | – | – | – | – | > 100 | – | > 100 | > 100 | > 100 | > 100
6 | C/C=C(\C)C(=O)OC1C2C(C)=CC(=O)C(O)C2(C)C2C3(O)OCC24C1OC(=O)C(OC(C)=O)C4C(C)C3O (centres undefined) | – | – | – | – | – | – | – | – | – | – | – | – | – | 0.0415 | 0.0409 | 0.795 | 0.078
7 | CN(CCO)CCC1COc2ccccc2O1 (centres undefined) | – | > 10 | – | > 10 | – | – | – | > 10 | – | > 10 | – | > 10 | – | > 10 | – | – | –
